# Assay results taken from patent EP0125439A2, “3,6-Disubstituted-1,8-naphthalimides and methods for their production and use” (WARNER-LAMBERT COMPANY, priority 1983, dated 1984).
# Where a name gives a salt, the structure may show the parent alone. Read-outs that look alike come from different tables or passages of the source.
# How the values were obtained:
# HCT-8 cells = experiment: in vitro proliferating human colon adenocarcinoma (HCA) cell screen; format: cell-based; details: 60 - 65 hours with compound, nuclei count, 50% inhibition of growth, read-out: ID50 (the source's name)
# Protocol: One test protocol is the in vitro proliferating human colon adenocarcinoma (HCA) cell screen. In this test, HCT-8 cells (HCA cell line received from Yale University) are trypsinized using trypsin-EDTA. A single cell suspension is achieved by passing the cells through a 26 gauge needle with a 20 cc syringe. A cell suspension is prepared using RPMI 1640 + 10% FCS + 50 ug/ml gentamicin sulfate with a cell concentration of approximately 30t000 cells/ml. The cell suspension is dispensed in Linbro 24-well plates; 1 ml/well. The plates are incubated for approximately 48 hours at 37 degrees C. in a 5% C02 atmosphere. At this time test compounds are added in the appropriate concentration. Five ul of the 200 ug/ml stock solution is added to each well in a primary test. Ten ul of the appropriate dilution is added to each well for a titration test. The plates are reincubated an additional 60 - 65 hours at 37 degrees C. in a 5% C02 atmosphere. The cells are lysed using a mix of cationic surfactant, glacial acetic acid and sodium chloride. Two ml of the lysed cell suspension from each well is added to 8 ml of diluent. The number of nuclei is determined using a Coulter counter (ZBI model), and a percent growth for each drug concentration is calculated. From this, an ID50 (molar concentration of compound that results in 50% inhibition of growth) is determined.
# [1] = tested on: Penicillium avellaneum M2988; experiment: in vitro antibacterial/antifungal (ABF) agar-disk diffusion assay; format: cell-based; details: Hamigera avellanea, read-out: Inhibition Zone Diameter P. avellaneum; for zone of inhibition at 500000 µg/mL: Dose 500 mg/ml
# Protocol: (§1) Another test protocol is the in vitro anti- bacterial/antifungal (ABF) test. Compounds are tested for antimicrobial activity in an agar-disk diffusion assay, a standard microbiological technique for testing antibiotics. After incubation of each culture with a test compound, a zone of inhibition is determined. The zone diameter (mm) of active compounds ranges from a minimum of 13.5 mm to as high as 60 mm, with a greater diameter reflecting higher activity. For convenience, values are reported for the gram-negative bacterial species (Escherichia coli 04863), two gram positive bacteria (Bacillus subtilis 04555 and Streptococcus faecalis 05045 utilizing AM-09 medium), and one mycelial fungus (Penicillium avellaneum M2988).
# [2] = tested on: Streptococcus faecalis 05045; experiment: as above; format: cell-based; details: Enterococcus faecalis, Dose 500 mg/ml, AM-09 medium, read-out: Inhibition Zone Diameter S. Faecalis
# Protocol: as §1
# Bacillus subtilis 04555 = experiment: as above; format: cell-based; details: Dose 100 mg/ml, read-out: Inhibition Zone Diameter B. Subtilis
# Protocol: as §1
# mouse tumor line L1210 = experiment: growth inhibition of L1210 in suspension cell culture; format: cell-based; details: read-out: L1210 Leukemia In Vitro ID50
# Protocol: In another test protocol, growth-inhibitory effects are measured against the mouse tumor line L1210 in suspension cell culture. Cell cultures were initiated at a density of 50,000 cells/ml in medium RPMI 1630 supplemented with 10 percent fetal calf serum. Composition of this culture medium and details of the culture procedure follow the published method (Journal of the National Cancer Institute 36, 405-415, 1966). Cultures are maintained at 37 degrees in stationary suspension culture under a 95 percent air + 5 percent C02 atmosphere. Test compounds are added to treated cultures at the time of initiation, and are present continually. After 72 hours, 40-fold dilutions of drug- treated and untreated control cultures are prepared in 0.9 percent NaCl solution, and cells are counted on an electronic particle counter. The growth-inhibitory effects are expressed as IDSO values, namely, test compound inhibitory dosages or concentrations required to decrease cell count in treated cultures to 50 percent of the cell count of untreated control cultures.
# Escherichia coli 04863 = experiment: in vitro antibacterial/antifungal (ABF) agar-disk diffusion assay; format: cell-based; details: Dose 500 mg/ml, read-out: Inhibition Zone Diameter E. Coli
# Protocol: as §1
# B16 melanoma = experiment: solid tumor B16 melanoma in mice; format: in vivo; details: survival time treated/control
# Protocol: Another test protocol utilizes the solid tumor B16 melanoma in mice. The tumor is inoculated by intraperitoneal injection. The test compounds are administered intraperitoneally once daily for nine consecutive days at various doses following tumor inoculation. A ratio of survival time for treated (T)/control (C) animals is calculated. A criterion for efficacy is a ratio T/C times 100 greater than or equal to 125. See Cancer Therapy Reviews, 7, 167 (1980) and references cited therein for further details and interpretation of the test.
# [3] = tested on: lymphocytic leukemia P388; experiment: in vivo lymphocytic leukemia P388 test; design: species or system CD2Fl mice; details: survival time treated/control
# Protocol: Another test protocol is the in vivo lymphocytic leukemia P388 test. The animals used are either male or female CD2Fl mice, six or seven animals per test group. The tumor transplant is by intraperitoneal injection of dilute ascitic fluid containing cells of lymphocytic leukemia P388. The test compounds are administered intraperitoneally once daily for five consecutive days at various doses following tumor inoculation. The animals are weighed and survivors are recorded on a regular basis for 30 days. A compound is designated "toxic" if, at a given dose, all animals died prior to four days after the first injection of drug. A ratio of survival time for treated (T)/control (C) animals is calculated. A criterion for efficacy is a ratio T/C times 100 greater than or equal to 125. See Cancer Chemotherapy Reports, Part 3, 3, 1 (1972) for a comprehensive discussion of the protocol.
SMILES,IC50 (HCT-8 cells),zone of inhibition at 3 g/mL ([1]; Dose 3000 mg/ml),zone of inhibition at 500000 µg/mL [2],zone of inhibition at 100000 µg/mL (Bacillus subtilis 04555),"IC50 (mouse tumor line L1210; L1210, 72 h)",zone of inhibition at 500000 µg/mL [1],zone of inhibition at 500000 µg/mL (Escherichia coli 04863),B16 Melanoma T/C X100 (B16 melanoma; Dose 12.5 mg/kg intraperitoneally once daily for nine days),P388 Leukemia In Mice T/C X100 ([3]; Dose 1.56 mg/kg intraperitoneally once daily for five days),"IC50 (mouse tumor line L1210; L1210, 72 hours, cell count 50 percent of untreated control)",P388 Leukemia In Mice T/C X100 ([3]; Dose 3.12 mg/kg intraperitoneally once daily for five days),B16 Melanoma T/C X100 (B16 melanoma; Dose 1.00 mg/kg intraperitoneally once daily for nine days)
"O=C1c2cc([N+](=O)[O-])cc3cc([N+](=O)[O-])cc(c23)C(=O)N1CCN1CCOCC1 [3,6-Dinitro-N-[2-(morpholino)ethyl]-1,8-naphthalimide]",860 nM,15 mm,14 mm,22 mm,1100 nM,–,–,–,–,–,–,–
"O=C1c2cc([N+](=O)[O-])cc3cc([N+](=O)[O-])cc(c23)C(=O)N1CCN1CCCCC1 [CH2CH2N(CH2)5, 3,6-Dinitro-N-[2-(piperidinyl)ethyl]-1,8-naphthalimide, Hydrochloride]",480 nM,–,19 mm,24 mm,290 nM,26 mm,16 mm,135%,–,–,–,–
"O=C1c2cc([N+](=O)[O-])cc3cc([N+](=O)[O-])cc(c23)C(=O)N1CCN1CCCC1 [CH2CH2N(CH2)4, 3,6-Dinitro-N[2-(pyrrolidinyl)ethyl]-1,8-naphthalimide Hydrocholoride]",180 nM,–,18 mm,16 mm,83 nM,22 mm,17 mm,–,–,–,–,–
"CCN(CC)CCN1C(=O)c2cc([N+](=O)[O-])cc3cc([N+](=O)[O-])cc(c23)C1=O [CH2CH2NEt2, N-[2-(Diethylamino)ethyl]-3,6-dinitro-1.8-naphthalimide Hydrochloride]",960 nM,–,–,–,350 nM,–,–,–,155%,–,–,–
"CN(C)CCN1C(=O)c2cc([N+](=O)[O-])cc3cc([N+](=O)[O-])cc(c23)C1=O [CH2CH2NMe2, N-[2-(Dimethylamino)ethyl]-3,6,-dinitro-1,8-naphtalamide, Hydrochloride]",–,–,–,–,–,–,–,–,–,36 nM,167%,125%
